Patent US20190351076A1, “TUMOR CELL XENOGRAFT MODEL IN ZEBRAFISH, AND METHODS OF CONSTRUCTING AND USING THE SAME” (NANJING EMORY BIOTECHNOLOGY CO., LTD., priority 2017, published 2019)

Key:
zebrafish embryos = zebrafish embryos two days after fertilization, treated for 3 days
Experimental: For the quantitative analysis, the antitumor effect is calculated according to the following formula: the tumor inhibition rate of the drug=(the fluorescence intensity of the treatment group/the fluorescence intensity of the control group)*100%.
1. Four groups, each group having four randomly selected zebrafish embryos that were two days old after fertilization, were placed in a solution of curcumin containing 0.1% DMSO. The curcumin concentrations were 10 μM, 30 μM, 50 μM, and 70 μM, respectively, and the treatment was continued for 3 days.

[1] = system: patient-derived primary gastric cancer cells; test: Patient-derived gastric cancer cell xenograft model in zebrafish, fluorescence quantification; format: in vivo, human; settings: 4000 μM and 400 μM soak for three days, day 7 after the injection
Experimental: (§1) The patient-derived clinical tissue biopsy that was a surgical specimen of gastric cancer was placed in physiological saline. The blood clot, necrotic tissue, fat and connective tissues on the surface of the tumor tissue were removed under aseptic conditions. The tissue was cut by an ophthalmic scissor after sterilization, and washed 2 times with sterile phosphate buffer (pH 7.4). A small amount of phosphate buffer was added, and the tissue was repeatedly cut with an ophthalmic scissor until the tissue became a paste and was about 1 mm^3. 0.25% trypsin was added and the tissue was digested at 37° C. for 10 minutes. […] The cells were re-suspended in RPMI-1640 medium containing 10% FBS (fetal calf serum).
(§2) The primary cells obtained by dissociation were stained with CM-Dil, where the final dye concentration was 2 μg/ml, and the staining time was 1 hour. The dye was removed by centrifugation, and the cells were washed with a phosphate buffer and re-suspended to a cell density of 1×10^4/μl.
(§3) The stained cells were filled into a microinjector. […]
Within 7 days after the injection, the growth, metastasis and spread of the cells derived from the patient in the zebrafish were observed under a fluorescence microscopy and photographed. […]

gastric cancer = test: Clinical outcome of 5-FU treatment in the gastric cancer patients; format: in vivo, human
SGC-7901 = test: Human gastric cancer cell line xenograft model in zebrafish (SGC-7901); format: in vivo; settings: SGC-7901 xenograft; 4000 μM and 400 μM soak for three days; day 7 after injection
Experimental: (§4) 4000 μM and 400 μM5-FU were used to soak the zebrafish embryos injected with gastric cancer cell lines (SGC-7901 and AGS) (constructed as in Example 1) for three consecutive days, and 0.1% DMSO was used as a solvent control.
(§5) The red cells were photographed under a fluorescence microscope, and the red fluorescence intensity was quantified by Image Pro Plus software to calculate the anti-tumor effect of 5-FU by a formula: Tumor inhibition rate of the drug=(the fluorescence intensity of the treatment group/the fluorescence intensity of the control group)*100% (see FIG. 4).

AGS = test: Human gastric cancer cell line xenograft model in zebrafish (AGS); format: in vivo; settings: 4000 μM and 400 μM soak for three days, day 7 after injection
Experimental: as §4, §5

[2] = system: patient-derived primary lung cancer cells; test: Patient-derived lung cancer cell xenograft model in zebrafish, fluorescence quantification; format: in vivo, human; settings: 50-μM and 5-μM soak for three days, day 7 after the injection
Experimental: as §1, with “lung” for “gastric”, “mm^3 in size.” for “mm^3.”, “resuspended” for “re-suspended”
as §2, §3
Within 4 days after the injection, the growth, metastasis and spread of the cells derived from the patient in the zebrafish were observed under a fluorescence microscopy and photographed. […]

lung cancer = test: Clinical outcome of drug treatment in the lung cancer patients; format: in vivo, human
A549 = test: Human lung cancer cell line xenograft model in zebrafish (A549); format: in vivo; settings: 50 μM and 5 μM soak for three days, day 7 after injection

With `CC(=O)O[C@@]12CO[C@@H]1C[C@H](O)[C@@]1(C)C(=O)[C@H](O)C3=C(C)[C@@H](OC(=O)[C@H](O)[C@@H](NC(=O)OC(C)(C)C)c4ccccc4)C[C@@](O)([C@@H](OC(=O)c4ccccc4)[C@H]21)C3(C)C` [docetaxel] the “highest concentration within the safe range for embryos” value (zebrafish embryos) was 10 µM.
`O=c1[nH]cc(F)c(=O)[nH]1` [5-FU, 5-fluorouracil] was tested, and the “sensitivity of patient-derived gastric cancer cells to 5-FU (tumor inhibition effect)” value ([1]; #1 and #2 patients) was “not sensitive”, the “sensitivity of patient-derived gastric cancer cells to 5-FU (tumor proliferation inhibition)” value ([1]; #3 and #4 patients) was “sensitive” and the “clinical effect of 5-FU in the treatment of the patients” value (gastric cancer; #1 and #2 patients with gastric cancer) was “not significant”. The “clinical symptoms after treatment with 5-FU” value (gastric cancer; #3 and #4 patients with gastric cancer) was “significantly improved”, the “sensitivity of gastric cancer cell line to 5-FU” value (SGC-7901) was “sensitive” and the “sensitivity of gastric cancer cell line to 5-FU” value (AGS) was “sensitive”.
`COc1cc(/C=C/C(=O)CC(=O)/C=C/c2ccc(O)c(OC)c2)ccc1O` [curcumin] was tested, and the “highest concentration within the safe range for embryos” value (zebrafish embryos) was 50 µM.
In the case of `COc1cc2ncnc(Nc3ccc(F)c(Cl)c3)c2cc1OCCCN1CCOCC1` [gefitinib], the “highest concentration within the safe range for embryos” value (zebrafish embryos) is reported as 50 µM, the “sensitivity of patient-derived lung cancer cells to gefitinib (tumor inhibition effect)” value ([2]; *5 and *6 patients) is reported as “sensitive” and the “sensitivity of patient-derived lung cancer cells to gefitinib” value ([2]; *7 and *8 patients) is reported as “not sensitive”. For the same compound, the “clinical effect of gefitinib in the treatment of the patients” value (lung cancer; *5 and *6 patients with lung cancer) was “significant”, the “clinical symptoms after treatment” value (lung cancer; *7 and *8 patients with lung cancer) was “not significantly improved” and the “sensitivity of lung cancer cell line to gefitinib” value (A549) was “sensitive”.
